Here are results for two compounds from patent US12606551B2, “Salt of tetrahydroisoquinoline derivative, preparation method therefor, and medical use thereof” (ZHEJIANG HISUN PHARMACEUTICAL CO., LTD., priority 2020, dated 2026).

In brackets after ≈: the same amount, converted by molar mass.

A short description of one series: Solubility test. In kind it is physicochemical. As for the experimental part:
According to the conventional method for solubility assay, the solubility of the compounds of the present invention in the following four different systems was tested: phosphate salt buffer PBS (pH7.4), methanol, 0.1% HCl and water.

Series [1] can be described thus: Pharmacokinetic assay in SD rats. The following applies: PO 60 mg/kg; for AUC(0-inf) / Cmax / half-life / MRT: both sexes, Sprague-Dawley, rat, plasma; for AUC(0-inf): read-out: Area under the curve AUC0-∞; for Cmax: read-out: Blood concentration Cmax; for half-life: read-out: Half life T½ (converted); for MRT: read-out: Residence time MRT. The series is classed as in vivo. As for the experimental part: SD rats were taken as the test animals, and the compounds of the present invention were administrated to the rats by intravenous injection or gavage. Then the drug concentrations in the plasma at different times were measured using LC/MS/MS method to study the pharmacokinetic characteristics of the compounds of the present invention in rats.
Six healthy adult Sprague Dawley (SD) male rats were purchased from Vital River Laboratory Animal Technology Co., Ltd.
76.32 mg of compound 1m was weighed and dissolved in 12.72 mL of 0.5% sodium carboxymethyl cellulose (CMC-Na), the mixture was mixed by vortex for 1 minute until the compound was completely suspended, and the final prepared concentration was 6 mg/mL;
76.61 mg of compound 1 was weighed and dissolved in 12.768 mL of 0.5% sodium carboxymethyl cellulose (CMC-Na), the mixture was mixed by vortex for 1 minute until the compound was completely suspended, and the final prepared concentration was 6 mg/mL.
Compounds 2 to 4 were weighed and dissolved in an appropriate amount of 0.5% sodium carboxymethyl cellulose (CMC-Na), the mixture was mixed by vortex for 1 minute until the compound was completely suspended, and the final prepared concentration was 6 mg/mL.
Six healthy adult SD rats, half male and half female, were divided into 2 groups, 3 rats in each group. The rats were fasted overnight, and then intragastrically administered (po) with the compound 1m or compounds 1 to 4 of the present invention at a dose of 60 mg/kg.
About 0.25 mL of blood was collected from the jugular vein before the administration and 0.25 hours, 0.5 hours, 1 hour, 2 hours, 4 hours, 6 hours, 8 hours and 24 hours after the administration, and heparin sodium was used for anticoagulation. The blood samples were placed on ice after collection, and then centrifuged to separate the plasma (centrifugation conditions: 7000 rpm, 5 minutes). The collected plasma was stored below −70° C. until analysis.
300 μL of methanol (comprising internal standard working solution, Loratadine 800 ng/mL) was added to 100 μL of plasma sample, then the mixture was mixed by vortex for 5 minutes, then the obtained mixture was centrifuged at 10,000 rpm for 10 minutes, and 1 μL of the resulting mixture was taken and subjected to LC-MS/MS analysis.

A further series concerns the target T1, human AT2R (Homo sapiens, UniProt P50052).
T1 construct: Tb (terbium) label on the receptor; expressed in transfected cells
T1 sequence (P50052 1-363): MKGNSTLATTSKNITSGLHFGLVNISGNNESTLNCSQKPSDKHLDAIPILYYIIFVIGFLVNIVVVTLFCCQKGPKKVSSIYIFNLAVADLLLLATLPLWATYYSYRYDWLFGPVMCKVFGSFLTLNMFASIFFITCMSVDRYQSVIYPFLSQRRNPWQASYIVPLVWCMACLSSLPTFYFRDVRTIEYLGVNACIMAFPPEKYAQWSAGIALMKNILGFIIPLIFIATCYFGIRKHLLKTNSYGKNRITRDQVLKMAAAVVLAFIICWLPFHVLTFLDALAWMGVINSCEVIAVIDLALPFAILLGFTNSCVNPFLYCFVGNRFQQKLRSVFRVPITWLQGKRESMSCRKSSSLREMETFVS
Nature of the series: Antagonistic activity against human AT2R ligand binding (Tag-lite HTRF). Particulars: Tb-labeled-AT2R cells, red agonist fluorescent ligand, 1 hour at 25° C. The source says: Test Example 1 Test of the antagonistic activity of the compounds of the present invention against human AT2R ligand binding.
Angiotensin II Type-2 receptor (ATR) is involved in neuronal differentiation and regeneration, cell proliferation and angiogenesis, and maintenance of bone mass. ATR inhibitors can be used for treating pain and abnormal neuroregenerative diseases, inhibiting the proliferation of tumor cells and increasing bone mass. In the following methods, the degree of antagonism of the compounds of the present invention against AT2R was studied through AT2 ligand binding assay.
According to standard methods, test compounds (compound 1m and compounds 1-4) were respectively dissolved in dimethyl sulfoxide to be prepared into stock solutions of 10 mM.
(2) The test compound was subjected to 5-fold dilution with a total of 10 concentration gradients;
(3) The diluted compound in step (2) was transferred to a working plate (3657, Corning) at 160 nL/well, 200 g at room temperature for 1 minute; […]
(11) The reaction plate was centrifuged at 200 g for 1 minute at room temperature, then kept still at room temperature 25° C. for 1 hour, and centrifuged at 200 g for 1 minute at room temperature. Data were collected using Envision HTRF microplate reader, and IC50 was calculated using nonlinear fitting formula.

[2] abbreviates: methanol, organic solvent or mixture.

The solubility is the concentration that dissolves in the medium under given conditions. The half-life is the time in which the quantity being followed falls by half. By MRT is commonly meant a mean duration of stay, worked out from the concentration-time curve. Broadly, the IC50 is the concentration that gives 50% inhibition. Low readings indicate greater potency, high ones weaker potency. In “Solubility test” (aqueous buffer, PBS (pH 7.4)), `COc1ccc(COc2c(OC)ccc3c2C[C@@H](C(=O)[O-])N(c2nc4ccc(F)cc4o2)C3)nc1.[Na+]` [Compound 1] showed a solubility of 8690 µg/mL. Moreover, the solubility in the series “Solubility test” (setting [2]) is more than 10000 µg/mL. The concentration in solution in “Solubility test” (water) (solubility) was 6410 µg/mL. In series [1] (versus free acid compound 1m), the “Increase of area under the curve compared with compound 1m” value stood at 14 times and the “Increase of plasma concentration compared with compound 1m” value is recorded as “more than 50 times”. For the same compound, in series [1], the AUC(0-inf) turned out to be 328 ± 53.2 µg·h/mL, the Cmax worked out at 127 ± 12.7 µg/mL, the half-life is 3.57 ± 0.85 h and the MRT turned out to be 2.59 ± 0.41 h. This compound also had an IC50 on human AT2R of 6 nM.

Turning to `COc1ccc(COc2c(OC)ccc3c2C[C@@H](C(=O)O)N(c2nc4ccc(F)cc4o2)C3)nc1` [Compound 1m], the concentration in solution in the series “Solubility test” (aqueous buffer, PBS (pH 7.4)) (solubility) came to 150 µg/mL (≈ 313 µM). In the series “Solubility test” (setting [2]), the solubility stood at 340 µg/mL (≈ 709 µM). Moreover, the concentration in solution in the series “Solubility test” (water) (solubility) was 30 µg/mL (≈ 62.6 µM). Further, in series [1], the AUC(0-inf) came to 22.2 ± 9.1 µg·h/mL, the Cmax is 2.4 ± 0.53 µg/mL, the half-life was 3.73 ± 1.25 h and the MRT was 6.13 ± 1.13 h.
